# According to US20120046333A1, “Methods and Compositions of PI-3 Kinase Inhibitors for Treating Fibrosis” (Oncothyreon Incorporated, priority 2009, published 2012):
# “Also recorded” adds a separate entry of the source.
# Assays:
# [1] = aqueous solutions at 37° C. or 0° C. at neutral pH; cited from earlier work
# [2] = test system: phosphorylated Akt (P-Akt) Ser 473; experiment: Western blot of TGFα-induced phosphorylation of Akt in lung homogenates; assay type: in vivo; details: 1 day of Dox, PX-866 pretreatment 3 mg/kg by gavage, vs vehicle-treated transgenic mice
# Excerpt: (§1) CCSP-rtTA activator mice expressing the reverse tetracycline-responsive transactivator (rtTA) under control of the 2.3-kb rat Clara Cell Secretory Protein (CCSP), a.k.a. secretoglobin, family 1A, member 1 (Scgblal) gene promoter were mated to conditional doxycycline (Dox) regulated transgenic mice containing the human TGFα cDNA under the control of seven copies of the tetracycline operon ((TetO)7-cmv TGFα) plus a minimal CMV promoter. Single transgenic (CCSP-rtTA+/−) and bitransgenic CCSP-rtTA+/−/(TetO)7-cmv TGFα+/− mice were produced within the same litter by mating homozygous CCSP-rtTA+/+ mice to hemizygous (TetO)?-cmv TGFα+/− mice. All mice were derived from the FVB/NJ inbred strain. Mice were maintained in virus-free containment. […]
# Western Blots: Western blot analysis was performed on lung homogenates as previously described. Blots were incubated with antibodies against total and phosphorylated Akt (Ser 473 and Thr 308, Cell Signaling Technology) and quantified using the volume integration function on a PhosphorImager software Imagequant 5.2 (Molecular Dynamics, Sunnyvale, Calif.).
# PX-866 inhibits TGFα-Induced Phosphorylation of Akt: CCSP-rtTA/otet-TGFαmice were treated with 1 day of Dox to induce TGFα expression. Phosphorylated Akt (P-Akt) levels for Ser 473 as measured by Western blot analysis increased over 5-fold compared to Dox-treated control mice.
# [3] = test system: CCSP-rtTA/otet-TGFα transgenic mice; experiment: Prevention of TGFα-induced pulmonary fibrosis, PX-866 given at initiation of TGFα induction; assay type: in vivo; details: 4 weeks of Dox, PX-866 from initiation of TGFα induction
# Excerpt: as §1, with “strain.” for “strain. Mice were maintained in virus-free containment.”
# (§2) Lung Histology, Immunostaining and Total Lung Collagen: Lungs were inflation fixed as previously described. […] Total lung collagen was determined by quantifying total soluble collagen (Sircol Collagen Assay, Biocolor, Ireland) as previously described.
# (§3) Pulmonary Mechanics: Lung mechanics were assessed on mice with a computerized Flexi Vent system (SCIREQ, Montreal, Canada). […] The ventilation mode was changed to forced oscillatory signal (0.5-19.6 Hz), and respiratory impedance was measured. […]
# (§4) Statistics: Means (+/−SEM) were calculated and plotted for each variable, by mouse group (CCSP/-Vehicle, CCSP/TGFα Vehicle, CCSP/TGFα PX-866). Data were assessed for normality using plots and the Shapiro-Wilk test. […]
# [4] = test system: CCSP-rtTA/otet-TGFα transgenic mice; experiment: Progression of established TGFα-induced pulmonary fibrosis, PX-866 given after 4 weeks of Dox; assay type: in vivo; details: 8 weeks of Dox
# Excerpt: CCSP-rtTA activator mice expressing the reverse tetracycline-responsive transactivator (rtTA) under control of the 2.3-kb rat Clara Cell Secretory Protein (CCSP), a.k.a. secretoglobin, family 1A, member 1 (Scgblal) gene promoter were mated to conditional doxycycline (Dox) regulated transgenic mice containing the human TGFα cDNA under the control of seven copies of the tetracycline operon ((TetO)7-cmv TGFα) plus a minimal CMV promoter. Single transgenic (CCSP-rtTA+/−) and bitransgenic CCSP-rtTA+/−/(TetO)7-cmv TGFα+/− mice were produced within the same litter by mating homozygous CCSP-rtTA+/+ mice to hemizygous (TetO)?-cmv TGFα+/− mice. All mice were derived from the FVB/NJ inbred strain. Mice were maintained in virus-free containment. All animal protocols were reviewed and approved by the Institutional Animal Use and Care Committee of the Cincinnati Children's Hospital Research Foundation. To induce TGFα expression, Dox (Sigma, St. Louis, Mo.) was administered in the drinking water at a final concentration of 0.5 mg/ml and in food (62.5 mg/kg). Water was replaced three times per week. Mice were genotyped as known in the art.
# The PI3K inhibitor PX-866 (ProIX Pharmaceuticals, Tucson, Ariz.) was suspended into 5% EtOH to make a 5 mg/ml stock solution. Three hours prior to administration, food and water were removed from cages. Mice were then anesthetized (Isoflurane; Abbott Labs, Chicago, Ill.), and sterile vehicle or drug (3 mg/kg) was administered by gavage using a 20 gauge feeding catheter (Harvard Apparatus, Holliston, Mass.). Mice were treated with vehicle or PX-866 every other day for up to 4 weeks. Mice were killed with pentobarbital sodium (65 mg/ml) euthanasia solution (Fort Dodge Animal Health, Fort Dodge, Iowa) 1 day or 4 weeks after Dox and vehicle or PX-866 treatment.
# as §2, §3, §4
# Weights of mice in four different groups were measured at Baseline and at evenly spaced intervals during the next eight weeks, once per week. […] Differences in selected (a priori) Group*Time means were calculated and tested using a simulation-based adjustment for multiple comparisons. […]
# [5] = PX-866 from 4 weeks after TGFα induction
Compound,stability in aqueous solution [1],"TGFα-induced phosphorylation of Akt (P-Akt, Ser 473) [2]","lung mechanics (airway resistance, airway and tissue elastance, compliance) [3]","lung fibrosis by histology [4, 5]","lung mechanics (airway resistance, airway and tissue elastance, compliance) [4, 5]","total lung collagen [4, 5]",body weight ([4]; PX-866 from beginning of week 5)
COC[C@H]1OC(=O)c2coc3c2[C@@]1(C)C1=C(C3=O)[C@@H]2CCC(=O)[C@@]2(C)C[C@H]1OC(C)=O [Wortmannin],subject to decomposition by hydrolytic opening of the furan ring,,,,,,
C=CCN(/C=C1/C(=O)O[C@H](COC)[C@@]2(C)C1=C(O)C(=O)C1=C2[C@H](OC(C)=O)C[C@]2(C)C(=O)CC[C@@H]12)CC=C [PX-866],,prevented TGFα-induced increases in P-Akt; also recorded: prevented increased phosphorylation of Akt,"did not show any differences in lung mechanics; also recorded: prevented increases in airway resistance, airway and tissue elastance, and decreases in compliance",reduced pleural fibrosis as well as reduced perivascular and peribronchial fibrosis; also recorded: reduced fibrosis on lung histology; also recorded: attenuation of fibrosis,"significantly improved compared with vehicle-treated mice; also recorded: improved lung mechanics; also recorded: reduced increases in airway resistance, and airway and tissue elastance, and decreases in compliance",reduced lung collagen levels; also recorded: unchanged compared with mice taken off Dox after 4 weeks,prevented further body weight loss; also recorded: normalization of body weights; also recorded: did not have changes in body weight
